12 compounds from paper PMC5791972 (PLoS ONE, 2018) can be followed below.

One test deals with T1, AR (h) (Homo sapiens, UniProt P10275, T878A).
T1 construct: AR (h) LNCaP cells [3H]methyltrienolone; host or cells: LNCaP cells (cytosol)
T1 sequence (P10275 1-920 T878A): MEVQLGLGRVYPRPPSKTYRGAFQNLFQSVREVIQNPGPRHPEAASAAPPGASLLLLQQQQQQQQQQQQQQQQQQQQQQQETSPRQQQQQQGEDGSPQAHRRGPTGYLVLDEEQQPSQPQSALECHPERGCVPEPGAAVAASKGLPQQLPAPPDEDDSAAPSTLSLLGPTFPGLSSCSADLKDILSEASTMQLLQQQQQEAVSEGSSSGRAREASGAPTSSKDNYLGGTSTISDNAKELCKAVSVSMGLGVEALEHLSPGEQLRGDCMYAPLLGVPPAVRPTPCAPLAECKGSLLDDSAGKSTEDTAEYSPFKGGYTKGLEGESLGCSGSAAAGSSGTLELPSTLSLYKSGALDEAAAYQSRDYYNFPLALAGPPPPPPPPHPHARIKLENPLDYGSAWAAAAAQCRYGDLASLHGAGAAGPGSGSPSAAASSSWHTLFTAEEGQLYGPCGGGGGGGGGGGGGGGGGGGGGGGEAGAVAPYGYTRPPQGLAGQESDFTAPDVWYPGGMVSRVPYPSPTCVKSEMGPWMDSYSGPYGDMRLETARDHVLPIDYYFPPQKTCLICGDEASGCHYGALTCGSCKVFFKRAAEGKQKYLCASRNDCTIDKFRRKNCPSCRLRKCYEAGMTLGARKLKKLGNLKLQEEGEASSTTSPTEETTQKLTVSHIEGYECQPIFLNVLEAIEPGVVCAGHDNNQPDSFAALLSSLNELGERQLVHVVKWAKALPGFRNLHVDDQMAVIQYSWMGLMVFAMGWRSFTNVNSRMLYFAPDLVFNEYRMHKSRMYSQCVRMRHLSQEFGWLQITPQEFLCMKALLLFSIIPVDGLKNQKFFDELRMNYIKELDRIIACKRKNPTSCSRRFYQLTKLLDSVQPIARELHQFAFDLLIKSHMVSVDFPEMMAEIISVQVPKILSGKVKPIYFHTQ
It is filed as binding.

In another test the target is T2, H2 (h) (Homo sapiens, UniProt P25021).
T2 construct: host or cells: CHO cells
T2 sequence (P25021 whole entry): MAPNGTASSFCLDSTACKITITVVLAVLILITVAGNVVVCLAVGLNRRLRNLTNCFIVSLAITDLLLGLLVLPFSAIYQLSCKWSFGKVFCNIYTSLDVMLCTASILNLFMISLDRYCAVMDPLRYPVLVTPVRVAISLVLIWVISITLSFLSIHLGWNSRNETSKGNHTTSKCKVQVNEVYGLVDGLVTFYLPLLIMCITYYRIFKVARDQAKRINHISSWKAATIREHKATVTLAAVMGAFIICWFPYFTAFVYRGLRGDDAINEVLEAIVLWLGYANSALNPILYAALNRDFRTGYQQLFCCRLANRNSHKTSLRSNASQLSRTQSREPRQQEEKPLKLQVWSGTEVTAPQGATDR
Format: binding.

A further test has as its target T3, α2A (h) (Homo sapiens, UniProt P08913).
T3 construct: host or cells: CHO cells
T3 sequence (P08913 1-465): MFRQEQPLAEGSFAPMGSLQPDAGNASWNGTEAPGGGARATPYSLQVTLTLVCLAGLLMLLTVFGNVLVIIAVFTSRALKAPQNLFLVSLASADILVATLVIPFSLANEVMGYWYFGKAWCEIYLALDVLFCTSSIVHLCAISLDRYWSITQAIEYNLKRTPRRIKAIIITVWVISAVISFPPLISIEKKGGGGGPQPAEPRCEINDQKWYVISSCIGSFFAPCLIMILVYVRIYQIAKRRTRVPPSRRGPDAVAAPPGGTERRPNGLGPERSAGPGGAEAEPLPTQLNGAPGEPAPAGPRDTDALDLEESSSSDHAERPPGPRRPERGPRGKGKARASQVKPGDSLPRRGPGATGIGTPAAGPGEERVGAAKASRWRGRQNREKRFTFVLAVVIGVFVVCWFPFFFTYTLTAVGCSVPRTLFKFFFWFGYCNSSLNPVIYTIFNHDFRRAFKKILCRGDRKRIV
Format: binding.

The target of test [1] is T4, phosphatase 1B (h) (PTP1B) (Homo sapiens, UniProt P18031).
T4 construct: host or cells: E. coli
T4 sequence (P18031 1-435): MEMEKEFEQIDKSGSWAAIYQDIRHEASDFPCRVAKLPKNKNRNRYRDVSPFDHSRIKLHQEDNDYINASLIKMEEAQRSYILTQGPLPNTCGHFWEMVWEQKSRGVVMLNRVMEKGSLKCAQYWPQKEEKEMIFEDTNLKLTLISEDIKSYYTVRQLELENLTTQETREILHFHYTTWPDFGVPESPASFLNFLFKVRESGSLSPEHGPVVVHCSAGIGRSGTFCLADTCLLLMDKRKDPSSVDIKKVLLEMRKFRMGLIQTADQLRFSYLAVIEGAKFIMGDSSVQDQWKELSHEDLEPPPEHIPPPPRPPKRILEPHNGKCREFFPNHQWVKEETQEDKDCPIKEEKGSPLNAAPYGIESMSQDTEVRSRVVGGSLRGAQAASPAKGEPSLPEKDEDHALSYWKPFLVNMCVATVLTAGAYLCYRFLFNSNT
The test can be described thus: enzyme assay. It is filed as biochemical.

Another test addresses T5, A3 (h) (Homo sapiens, UniProt P0DMS8).
T5 construct: host or cells: HEK-293 cells
T5 sequence (P0DMS8 1-318): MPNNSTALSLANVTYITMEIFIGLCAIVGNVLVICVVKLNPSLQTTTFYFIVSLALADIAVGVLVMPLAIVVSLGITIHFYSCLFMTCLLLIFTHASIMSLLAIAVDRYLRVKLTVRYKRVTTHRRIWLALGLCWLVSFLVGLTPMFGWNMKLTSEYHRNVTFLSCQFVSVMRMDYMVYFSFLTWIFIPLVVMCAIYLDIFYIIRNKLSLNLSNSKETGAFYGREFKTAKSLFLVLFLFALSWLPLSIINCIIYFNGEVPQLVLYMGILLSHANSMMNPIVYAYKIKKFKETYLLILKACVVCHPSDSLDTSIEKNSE
It is filed as binding.

The target in the next test is T6, GABA transaminase (Rattus norvegicus, UniProt P50554).
T6 construct: rat brain; from tissue; host or cells: rat brain
T6 sequence (P50554 28-500): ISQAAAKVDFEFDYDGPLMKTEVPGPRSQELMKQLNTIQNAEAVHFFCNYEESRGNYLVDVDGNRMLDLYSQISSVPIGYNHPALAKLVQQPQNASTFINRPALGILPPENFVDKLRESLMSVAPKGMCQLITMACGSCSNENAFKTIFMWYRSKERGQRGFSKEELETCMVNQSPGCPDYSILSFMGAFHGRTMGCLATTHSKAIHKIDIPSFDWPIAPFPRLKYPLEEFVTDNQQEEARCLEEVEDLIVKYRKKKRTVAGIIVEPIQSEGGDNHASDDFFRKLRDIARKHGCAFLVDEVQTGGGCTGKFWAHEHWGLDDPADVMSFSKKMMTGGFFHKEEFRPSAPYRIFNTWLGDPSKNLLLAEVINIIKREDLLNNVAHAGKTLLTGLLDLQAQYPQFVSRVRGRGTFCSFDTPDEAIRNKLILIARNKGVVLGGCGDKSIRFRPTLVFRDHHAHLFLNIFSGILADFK
In words: enzyme assay. Format: biochemical.

For the next test, the target named is T7, α2C (h) (Homo sapiens, UniProt P18825).
T7 construct: host or cells: CHO cells
T7 sequence (P18825 1-462): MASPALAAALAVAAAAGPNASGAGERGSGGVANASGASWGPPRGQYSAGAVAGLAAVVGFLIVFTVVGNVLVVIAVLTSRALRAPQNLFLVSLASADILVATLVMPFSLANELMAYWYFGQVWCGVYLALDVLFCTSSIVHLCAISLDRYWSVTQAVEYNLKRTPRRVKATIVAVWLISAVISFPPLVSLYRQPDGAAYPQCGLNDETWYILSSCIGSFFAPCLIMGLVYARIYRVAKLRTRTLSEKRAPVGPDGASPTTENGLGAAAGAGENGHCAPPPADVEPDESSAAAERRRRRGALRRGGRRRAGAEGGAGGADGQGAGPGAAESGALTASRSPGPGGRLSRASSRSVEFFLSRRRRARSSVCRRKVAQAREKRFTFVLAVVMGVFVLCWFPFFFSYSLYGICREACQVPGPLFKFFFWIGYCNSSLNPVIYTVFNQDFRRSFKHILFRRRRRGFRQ
It is filed as binding.

The target in another test is T8, BLT1 (LTB4) (h) (Homo sapiens, UniProt Q15722).
T8 construct: host or cells: CHO cells
T8 sequence (Q15722 whole entry): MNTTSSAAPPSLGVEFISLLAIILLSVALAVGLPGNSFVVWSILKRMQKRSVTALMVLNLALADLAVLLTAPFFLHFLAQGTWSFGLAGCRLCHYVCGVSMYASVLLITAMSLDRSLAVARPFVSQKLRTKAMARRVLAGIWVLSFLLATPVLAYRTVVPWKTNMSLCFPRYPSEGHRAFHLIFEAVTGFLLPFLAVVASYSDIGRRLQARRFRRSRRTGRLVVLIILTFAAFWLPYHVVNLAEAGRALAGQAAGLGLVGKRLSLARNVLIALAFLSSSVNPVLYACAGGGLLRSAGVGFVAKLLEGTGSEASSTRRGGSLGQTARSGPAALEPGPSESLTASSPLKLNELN
It is filed as binding.

The target in a further test is T9, tyrosine hydroxylase (Rattus norvegicus, UniProt P04177).
T9 construct: rat striatum; from tissue; host or cells: rat striatum
T9 sequence (P04177 whole entry): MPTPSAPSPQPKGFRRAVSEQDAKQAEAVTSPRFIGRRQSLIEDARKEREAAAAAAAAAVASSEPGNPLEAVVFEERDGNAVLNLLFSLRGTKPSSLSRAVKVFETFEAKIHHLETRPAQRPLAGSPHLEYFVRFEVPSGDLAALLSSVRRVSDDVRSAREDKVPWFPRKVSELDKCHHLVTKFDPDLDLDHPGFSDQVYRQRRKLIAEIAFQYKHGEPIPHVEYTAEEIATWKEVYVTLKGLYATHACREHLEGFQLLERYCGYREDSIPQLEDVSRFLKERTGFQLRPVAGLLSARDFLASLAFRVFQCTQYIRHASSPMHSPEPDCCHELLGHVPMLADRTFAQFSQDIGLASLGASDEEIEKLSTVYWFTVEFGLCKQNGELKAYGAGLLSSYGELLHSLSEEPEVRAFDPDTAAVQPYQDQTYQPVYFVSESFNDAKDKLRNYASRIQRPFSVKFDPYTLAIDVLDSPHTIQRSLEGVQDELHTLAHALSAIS
In words: enzyme assay. Format: biochemical.

The target in another test is T10, β1 (h) (Homo sapiens, UniProt P08588).
T10 construct: host or cells: HEK-293 cells
T10 sequence (P08588 whole entry): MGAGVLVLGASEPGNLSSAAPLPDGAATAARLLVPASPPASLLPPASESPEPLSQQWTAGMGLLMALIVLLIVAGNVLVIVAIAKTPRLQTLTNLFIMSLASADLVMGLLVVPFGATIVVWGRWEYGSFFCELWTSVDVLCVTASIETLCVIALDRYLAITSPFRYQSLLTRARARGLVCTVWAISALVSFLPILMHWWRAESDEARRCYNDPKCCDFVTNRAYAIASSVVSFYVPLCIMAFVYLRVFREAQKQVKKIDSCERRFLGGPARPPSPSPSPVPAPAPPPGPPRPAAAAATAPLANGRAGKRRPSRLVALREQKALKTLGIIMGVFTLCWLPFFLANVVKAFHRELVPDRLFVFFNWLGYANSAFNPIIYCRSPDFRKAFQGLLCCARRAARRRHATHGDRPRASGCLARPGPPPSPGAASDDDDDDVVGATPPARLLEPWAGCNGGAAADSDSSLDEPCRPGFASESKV
Format: binding.

The next test concerns the target CaMK2α (h) (Homo sapiens, UniProt Q9UQM7). The test can be described thus: enzyme assay. It is filed as biochemical.
The target of the next test is T11, PDE6 (non-selective) (Bos taurus, UniProt P11541+P23439).
T11 construct: PDE6 bovine [3H]cGMP; tissue Cerep (contract assay); host or cells: bovine retina
T11 sequence (P11541 2-856 limits assumed): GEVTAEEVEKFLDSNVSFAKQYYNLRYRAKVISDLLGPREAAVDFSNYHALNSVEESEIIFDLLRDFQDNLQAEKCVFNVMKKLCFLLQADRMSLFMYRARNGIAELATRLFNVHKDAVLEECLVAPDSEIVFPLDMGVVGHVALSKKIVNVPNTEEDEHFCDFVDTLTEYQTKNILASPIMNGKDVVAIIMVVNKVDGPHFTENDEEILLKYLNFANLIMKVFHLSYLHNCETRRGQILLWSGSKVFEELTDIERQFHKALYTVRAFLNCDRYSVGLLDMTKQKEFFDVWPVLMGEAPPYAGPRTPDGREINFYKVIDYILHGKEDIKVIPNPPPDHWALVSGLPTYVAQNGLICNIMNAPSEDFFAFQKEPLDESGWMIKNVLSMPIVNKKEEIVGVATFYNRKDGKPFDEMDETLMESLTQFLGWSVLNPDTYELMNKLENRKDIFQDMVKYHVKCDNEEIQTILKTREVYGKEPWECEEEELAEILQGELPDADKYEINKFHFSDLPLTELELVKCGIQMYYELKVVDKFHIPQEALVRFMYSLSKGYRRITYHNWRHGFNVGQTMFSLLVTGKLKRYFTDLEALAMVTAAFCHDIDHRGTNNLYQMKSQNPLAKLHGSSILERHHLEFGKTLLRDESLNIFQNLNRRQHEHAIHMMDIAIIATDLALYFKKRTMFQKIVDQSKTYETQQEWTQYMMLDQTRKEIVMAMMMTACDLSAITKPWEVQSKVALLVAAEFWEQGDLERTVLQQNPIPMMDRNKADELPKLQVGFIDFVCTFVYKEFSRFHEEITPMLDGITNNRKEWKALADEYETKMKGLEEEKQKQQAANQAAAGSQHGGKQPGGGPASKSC
T11 sequence (P23439 2-850 limits assumed): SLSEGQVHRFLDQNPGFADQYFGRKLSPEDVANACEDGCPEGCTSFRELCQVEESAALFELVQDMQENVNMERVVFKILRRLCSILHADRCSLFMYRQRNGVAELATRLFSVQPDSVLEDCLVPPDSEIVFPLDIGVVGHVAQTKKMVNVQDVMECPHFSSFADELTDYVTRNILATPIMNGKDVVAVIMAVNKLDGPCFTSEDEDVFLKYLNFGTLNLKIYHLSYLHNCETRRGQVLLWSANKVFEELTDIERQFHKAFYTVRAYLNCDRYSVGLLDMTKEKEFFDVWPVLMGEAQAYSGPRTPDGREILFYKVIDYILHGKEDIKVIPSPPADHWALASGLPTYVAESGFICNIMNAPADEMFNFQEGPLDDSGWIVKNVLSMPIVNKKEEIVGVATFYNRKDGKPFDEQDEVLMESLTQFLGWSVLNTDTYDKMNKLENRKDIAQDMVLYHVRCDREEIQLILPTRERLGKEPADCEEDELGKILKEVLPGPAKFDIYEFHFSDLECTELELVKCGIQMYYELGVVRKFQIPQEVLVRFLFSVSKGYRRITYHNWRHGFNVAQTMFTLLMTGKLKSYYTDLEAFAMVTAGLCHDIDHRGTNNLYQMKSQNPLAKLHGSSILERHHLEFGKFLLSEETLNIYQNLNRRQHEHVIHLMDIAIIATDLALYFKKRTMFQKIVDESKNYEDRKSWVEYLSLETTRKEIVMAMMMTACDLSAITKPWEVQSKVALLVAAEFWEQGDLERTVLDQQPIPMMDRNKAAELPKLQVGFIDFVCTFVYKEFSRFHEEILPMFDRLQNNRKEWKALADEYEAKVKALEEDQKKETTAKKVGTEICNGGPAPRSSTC
The test can be described thus: enzyme assay. It is filed as biochemical, bovine.

Values joined by “and” are separate entries in the source; they are usually repeats but may differ in a detail not shown here. Identical values can stand only once. No end group written: not given here.

Take `C[C@@H]1CC2=CC(=O)CC[C@@H]2[C@H]2CC[C@@]3(C)[C@@H](CC[C@]3(C)O)[C@@H]21` [mibolerone, reference compound]: the nH on AR (h) was 1.1 and 1.0.

In the case of `CN/C(=N/CCSCc1nc[nH]c1C)NC#N` [cimetidine, reference compound], the nH on H2 (h) was found to be 0.9.

For the compound `COC(=O)[C@@H]1[C@H]2C[C@H]3c4[nH]c5ccccc5c4CCN3C[C@@H]2CC[C@@H]1O` [yohimbine, reference compound], the nH at α2A (h) is given as 1.1.

As to ammonium molybdate [reference compound], in test [1], the IC50 came out at 540 nM and the nH was 2.9.

`CNC(=O)[C@H]1O[C@@H](n2cnc3c(NCc4cccc(I)c4)ncnc32)[C@H](O)[C@@H]1O` [IB-MECA, reference compound] returned a nH at A3 (h) of 0.8.

At GABA transaminase, `NOCC(=O)O` [AoAA, reference compound] had a concentration for half-maximal inhibition (IC50) of 130 nM and a nH of 1.7.

In the case of `CNC[C@H](O)c1ccc(O)c(O)c1` [epinephrine, reference compound], the nH on α2C (h) is 1.1.

In turn, `CCCCC/C=C\C[C@@H](O)/C=C/C=C/C=C\[C@@H](O)CCCC(=O)O` [LTB4, reference compound] showed a nH on BLT1 (LTB4) (h) of 0.8.

Take `N[C@@H](Cc1ccc(O)c(I)c1)C(=O)O` [3-iodo L-tyrosine, reference compound]: at tyrosine hydroxylase, the IC50 is 610 nM and the nH came out at 1.0.

In turn, `CC(C)NCC(O)COc1ccc(CC(N)=O)cc1` (centres unmarked) [atenolol, reference compound] returned a nH on β1 (h) of 1.0.

For KKALRRQEAVDAL [AIP, reference compound], on CaMK2α (h), the 50% inhibitory concentration (IC50) amounted to 81 nM and the nH is listed as 1.0.

For `CCCOc1ccccc1-c1nc2nn[nH]c2c(=O)[nH]1` [zaprinast, reference compound], on PDE6 (non-selective), the midpoint of inhibition, the IC50, lay at 170 nM and the nH worked out at 0.7.
